Tested on: HLA-A*01
Assay: MHC binding assay (UV-ligand exchange, β2m ELISA)
Set-up: species or system human
Text: Candidate peptides for T cell based therapies according to the present invention were further tested for their MHC binding capacity (affinity). The individual peptide-MHC complexes were produced by UV-ligand exchange, where a UV-sensitive peptide is cleaved upon UV-irradiation, and exchanged with the peptide of interest as analyzed. Only peptide candidates that can effectively bind and stabilize the peptide-receptive MHC molecules prevent dissociation of the MHC complexes. To determine the yield of the exchange reaction, an ELISA was performed based on the detection of the light chain (β2m) of stabilized MHC complexes. The assay was performed as generally described in Rodenko et al. (Rodenko et al., 2006).
96 well MAXISorp plates (NUNC) were coated over night with 2 ug/ml streptavidin in PBS at room temperature, washed 4× and blocked for 1 h at 37° C. in 2% BSA containing blocking buffer. […] Peptide-MHC monomers of the UV-exchange reaction were diluted 100-fold in blocking buffer. Samples were incubated for 1 h at 37° C., washed four times, incubated with 2 ug/ml HRP conjugated anti-β2m for 1h at 37° C., washed again and detected with TMB solution that is stopped with […]. Absorption was measured at 450 nm. Candidate peptides that show a high exchange yield (preferably higher than 50%, most preferred higher than 75%) are generally preferred for a generation and production of antibodies or fragments thereof, and/or T cell receptors or fragments thereof, as they show sufficient avidity to the MHC molecules and prevent dissociation of the MHC complexes.

Substance | Peptide exchange (peptide exchange yield, MHC class I binding score)
168 (QTDHPQPILDRY; listed as Homo sapiens) [compound 168] | “++++” (>75% = ++++)
169 (RLDTPLYFSY; listed as Homo sapiens) [compound 169] | “++++” (>75% = ++++)
170 (RSDDTAVYY; listed as Homo sapiens) [compound 170] | “++++” (>75% = ++++)
171 (RSDPVTLNVLY; listed as Homo sapiens) [compound 171] | “++++” (>75% = ++++)
172 (RTDSCSSAQAQY; listed as Homo sapiens) [compound 172] | “+++” (>50 = +++)
176 (SRTINVSNLY; listed as Homo sapiens) [compound 176] | “+++” (>50 = +++)
177 (SSDEVNFLVY; listed as Homo sapiens) [compound 177] | “++++” (>75% = ++++)
178 (SSDSSTLPKL; listed as Homo sapiens) [compound 178] | “++” (>20% = ++)
179 (STAKSATWTY; listed as Homo sapiens) [compound 179] | “++++” (>75% = ++++)
180 (STDPWIQMAY; listed as Homo sapiens) [compound 180] | “++++” (>75% = ++++)
181 (TADGKTYYY; listed as Homo sapiens) [compound 181] | “+++” (>50 = +++)
182 (TDYHVRVY; listed as Homo sapiens) [compound 182] | “+++” (>50 = +++)
183 (TLEDIATSHLY; listed as Homo sapiens) [compound 183] | “++++” (>75% = ++++)
184 (TSAHPEDSSFY; listed as Homo sapiens) [compound 184] | “+++” (>50 = +++)
186 (TTDIIEKY; listed as Homo sapiens) [compound 186] | “+++” (>50 = +++)
188 (VSDAKLDKY; listed as Homo sapiens) [compound 188] | “+++” (>50 = +++)
190 (VTDGINPLIDRY; listed as Homo sapiens) [compound 190] | “+++” (>50 = +++)
191 (VTDGSLYEGVAY; listed as Homo sapiens) [compound 191] | “++++” (>75% = ++++)
192 (VTEESFDSKFY; listed as Homo sapiens) [compound 192] | “++++” (>75% = ++++)

Substance | Peptide exchange (peptide exchange yield, MHC class I binding score)
194 (VVADTKMIEY; listed as Homo sapiens) [compound 194] | “+” (>10% = +)
195 (VVDSVGGYLY; listed as Homo sapiens) [compound 195] | “++++” (>75% = ++++)
196 (WMFFVINY; listed as Homo sapiens) [compound 196] | “+” (>10% = +)
197 (YADTVRPEFY; listed as Homo sapiens) [compound 197] | “+++” (>50 = +++)
198 (YLDPVQRDLY; listed as Homo sapiens) [compound 198] | “++++” (>75% = ++++)
199 (YLPQHTIETY; listed as Homo sapiens) [compound 199] | “++” (>20% = ++)
200 (YSDEDVTKY; listed as Homo sapiens) [compound 200] | “++++” (>75% = ++++)
394 (ASEAEMRLFY; listed as Homo sapiens) [compound 394] | “++++” (>75% = ++++)
396 (ASEFGNHYLY; listed as Homo sapiens) [compound 396] | “++++” (>75% = ++++)
397 (ASEITSKGASLY; listed as Homo sapiens) [compound 397] | “++++” (>75% = ++++)
399 (ATDIPCLLY; listed as Homo sapiens) [compound 399] | “++++” (>75% = ++++)
400 (ATDISRQNEY; listed as Homo sapiens) [compound 400] | “+++” (>50 = +++)
401 (DSDESYMEKSLY; listed as Homo sapiens) [compound 401] | “++++” (>75% = ++++)
402 (DTDSQRLAY; listed as Homo sapiens) [compound 402] | “+++” (>50 = +++)
403 (ELDSKVEVLTY; listed as Homo sapiens) [compound 403] | “+++” (>50 = +++)
404 (ETARKFLYY; listed as Homo sapiens) [compound 404] | “++++” (>75% = ++++)
406 (ETEQTKFWDY; listed as Homo sapiens) [compound 406] | “++++” (>75% = ++++)
407 (FSDNDKLYLY; listed as Homo sapiens) [compound 407] | “++++” (>75% = ++++)
408 (FTEQWTDGY; listed as Homo sapiens) [compound 408] | “+++” (>50 = +++)

Substance | Peptide exchange (peptide exchange yield, MHC class I binding score)
409 (FVDPLVTNY; listed as Homo sapiens) [compound 409] | “++++” (>75% = ++++)
410 (GSDHQSPSSSSY; listed as Homo sapiens) [compound 410] | “++++” (>75% = ++++)
411 (GTVYEDLRY; listed as Homo sapiens) [compound 411] | “++++” (>75% = ++++)
412 (ILDEVIMGY; listed as Homo sapiens) [compound 412] | “++++” (>75% = ++++)
413 (ISDRYYTALY; listed as Homo sapiens) [compound 413] | “++++” (>75% = ++++)
414 (KTDESLTKY; listed as Homo sapiens) [compound 414] | “+++” (>50 = +++)
415 (LLDPRSYHTY; listed as Homo sapiens) [compound 415] | “+++” (>50 = +++)
416 (LLDTAQKNLY; listed as Homo sapiens) [compound 416] | “++++” (>75% = ++++)
417 (LLEDKHFQSY; listed as Homo sapiens) [compound 417] | “++++” (>75% = ++++)
418 (LSDPSGPKSY; listed as Homo sapiens) [compound 418] | “+++” (>50 = +++)
419 (LSELKPMSY; listed as Homo sapiens) [compound 419] | “++++” (>75% = ++++)
420 (LTEDKETLQY; listed as Homo sapiens) [compound 420] | “++++” (>75% = ++++)
421 (LTELLERAAFY; listed as Homo sapiens) [compound 421] | “++++” (>75% = ++++)
422 (MIDVTKSYY; listed as Homo sapiens) [compound 422] | “++++” (>75% = ++++)
423 (NLDAVHDITVAY; listed as Homo sapiens) [compound 423] | “++++” (>75% = ++++)
424 (NLDEEKQLLY; listed as Homo sapiens) [compound 424] | “+++” (>50 = +++)
425 (NLDIIQQEY; listed as Homo sapiens) [compound 425] | “++++” (>75% = ++++)
426 (NLDQATRVAY; listed as Homo sapiens) [compound 426] | “+++” (>50 = +++)
427 (NSDEQKITEMVY; listed as Homo sapiens) [compound 427] | “++++” (>75% = ++++)
